Measured values taken from patent US6815577B1, “Method of hybrid seed production using conditional female sterility” (Syngenta Participations AG, priority 1997, dated 2004).

Legend:
[1] = test system: transgenic plants expressing N-acetyl-L-ornithine deacetylase gene in tapetal cells; conditions: Kriete et al. 1996; EP 531,716; cited from earlier work
[2] = test system: transgenic plants expressing bacterial cytochrome P450 gene in tapetal cells; conditions: WO 91/03561; O'Keefe et al. 1994; cited from earlier work
[3] = test system: plants transformed with pFA200 or pSH74 or p19arg; assay: Acetyl-PPT treatment of plants conferring conditional female sterility; format: in vivo; conditions: T1 plants with pFA200 or pSH74 or p19arg, treated during the growing stages; untreated plants fully fertile
Method: (§1) Seed from the T1 generation from plants transformed with pFA200 or pSH74 or p19arg (conferring conditional female sterility) and plants transformed with pMA200 or pSH68 or pZmgarg (conferring conditional male sterility) are planted in soil. Once plantlets have grown to a sufficient size, leaf tissue is analyzed by PCR for the presence of the argE transgene. PCR positive plants are transferred to the greenhouse. These plants are fully fertile. A subset of the plants containing pFA200 or pSH74 or p19arg and a subset containing pMA200 or pSH68 or pZmarg are treated with the protoxin acetyl-PPT during the growing stages. […] The untreated plants transformed with pFA200 or pSH74 or p19arg and pMA200 or pSH68 or pZmgarg are fully fertile.

[4] = test system: plants transformed with pMA200 or pSH68 or pZmgarg; assay: Acetyl-PPT treatment of plants conferring conditional male sterility; format: in vivo; conditions: T1 plants with pMA200 or pSH68 or pZmgarg, treated during the growing stages; untreated plants fully fertile
Method: as §1

[5] = test system: conditional male sterile plants (transformed with pGK73); assay: Acetyl-PPT treatment of conditional male sterile tobacco plants; format: in vivo; conditions: T1 tobacco, pGK73 (TA29-argE), treated during the growing stages; untreated plants remain fully fertile
Text: Tobacco leaf discs are also transformed with pGK73, containing an expression cassette of the argE gene under the control of the TA29 promoter (Kriete et al., Plant J. 9:809-818 (1996)) as described in Horsch et al., Science 227:1229-1231 (1985). The presence of the integrated transgenes are confirmed by PCR. Northern analysis of RNA made from anthers is used to confirm tissue-specific expression of the argE gene in the transgenic plants. These plants are self-fertile and have the phenotype of conditional male sterility. Seed of the T1 generation is collected after self-pollination.
Seed of the T1 generation from both conditional female sterile plants (transformed with pFA100) and conditional male sterile plants (transformed with pGK73) are planted in soil. Once plantlets have grown to a sufficient size, leaf tissue is analyzed by PCR for the presence of the argE transgene. PCR positive plants are transferred to the greenhouse. These plants are fully fertile in the absence of exogenously-applied protoxin. A subset of the conditional female sterile plants and a subset of the conditional male sterile plants are treated with the protoxin acetyl-PPT during the growing stages. […] The untreated plants remain fully fertile. Pollen from the treated female sterile plants is collected and used to pollinate the pistils of treated male sterile plants, which are the female parent plants. […]

[6] = test system: conditional female sterile plants (transformed with pFA100); assay: Acetyl-PPT treatment of conditional female sterile tobacco plants; format: in vivo; conditions: T1 tobacco, pFA100 (Stig1-argE), treated during the growing stages; untreated plants remain fully fertile
Text: Plasmid pFA100 is constructed in a manner similar to pSH58, above, except that the argE gene (SEQ ID NO:3) replaces the GUS gene in Stig1-GUS (Goldman et al., EMBO J. 13:2976-2984 (1994)) in the correct translational reading frame using appropriate restriction enzymes. The STIG1-argE fusion is then ligated into a vector such as pCIB200 containing T-DNA borders, 3′ termination sequences and a functional plant selectable marker such as kanamycin resistance. The Stig1 promoter is a female-preferential promoter.
Tobacco leaf discs are transformed as described in Horsch et al., Science 227:1229-1231 (1985) with pSH58. The presence of the integrated transgenes is confirmed by PCR. Northern analysis of RNA made from female tissue is used to confirm tissue-specific expression of the argE gene in the transgenic plants. These plants are self-fertile and have the phenotype of conditional female sterility. T1 seed is collected after self-pollination. The female conditional transgene in pFA100 is also introduced into tobacco using similar procedures.
Seed of the T1 generation from both conditional female sterile plants (transformed with pFA100) and conditional male sterile plants (transformed with pGK73) are planted in soil. Once plantlets have grown to a sufficient size, leaf tissue is analyzed by PCR for the presence of the argE transgene. PCR positive plants are transferred to the greenhouse. […]

[7] = test system: transgenic plants expressing phosphonate monoester hydrolase gene in tapetal cells; conditions: Dotson et al. 1996; cited from earlier work

## CC(=O)N[C@@H](CCP(C)(=O)O)C(=O)O [N-acetyl-L-phosphinothricin]
[1]
  male fertility after protoxin treatment: rendered male sterile

## COc1cc(OC)nc(NC(=O)NS(=O)(=O)c2cccc3c2S(=O)(=O)N(C(C)C)C3)n1 [R7402, 2-methylethyl-2,2-dihydro-N-[(4,6-dimethoxypyrimidin-2-yl)aminocarbonyl]-1,2-benzoiaothiazole-7-sulfonamide-1,1-dioxide]
[2]
  male fertility after protoxin treatment: rendered male sterile

## CC(=O)NC(CCP(C)(=O)O)C(=O)O (stereo not shown) [acetyl-PPT, N-acetyl phosphinothricin]
[3]
  fertility of treated plants (female reproductive structures): are female sterile
[4]
  fertility of treated plants (male reproductive structures): are male sterile
[5]
  fertility of treated conditional male sterile plants: become male sterile
[6]
  fertility of treated conditional female sterile plants: become female sterile

## O=C(O)CNCP(=O)(O)OCC(O)CO (stereo not shown) [glycerol glyphosate, glyceryl glyphosate]
[7]
  male fertility after protoxin treatment: rendered male sterile
